Test results reported in patent US5300524A, “Spirocyclic PAF antagonists” (British Bio-Technology Limited, priority 1991, dated 1994).
pIC50: −log10 of the molar value.

These compounds were tested on PAF-induced hypotension in rats (assay: Reversal of PAF-induced hypotension in the rat). Settings: iv, anaesthetised male Sprague-Dawley rats, PAF 100 ng.kg^-1 min^-1 i.v. infusion, compound i.v. bolus, read-out: ED50, dose to cause a 50% reversal of the hypotensive PAF response.
Assay type: in vivo
Description: Compounds of general formula I inhibit PAF-induced functions in both the cellular and tissue levels by changing the PAF binding to its specific receptor site. The ability of compounds of general formula I to inhibit the binding of PAF to its specific receptor binding site on human platelet plasma membranes was measured according to Pharmacological Example 1. The ability of compounds of general formula I to reverse the hypotension caused by an infusion of PAF in rats was measured according to Pharmacology Example 2. […] Male Sprague-Dawley rats (300-350 gms) were anaesthetised with a mixture of sodium pentobarbitone, 22.5 mg.kg^-1 and thiopental 62.5 mg.kg^-1. Through a midline incision in the neck, the trachea was cannulated and the animals breathed spontaneously. A carotid artery was cannulated for the measurement of blood pressure and this signal was used to trigger a rate meter to measure heart rate. Both jugular veins were cannulated: one for the infusion of PAF and the other for the bolus administration of test compounds.

Compound	ED50 [mg/kg]
COc1ccc(C2CCC3(O2)C(=O)C(=Cc2cccnc2)CC3c2ccc(OC)c(OC)c2)cc1OC (stereo not drawn) [Example 2, 1-Oxa-6-oxo-7-(3-pyridyl)methylene-2,9-di(3,4-dimethoxyphenyl)spiro[4,4]nonane]	0.8

Each compound was assayed against T1, PAF receptor (^3 H-PAF binding to human platelet plasma membrane) (Homo sapiens, UniProt P25105) (assay: Inhibition of ^3H-PAF binding to human platelet plasma membrane (isotopic labelling and filtration)). Settings: human platelet membranes, 0.5 nM ^3H-PAF, 1 hour, 0° C.
T1 construct: from tissue; host or cells: human platelets (concentrates from a hospital blood bank), lysed by freeze-thaw, membrane fraction
T1 sequence (P25105 whole entry): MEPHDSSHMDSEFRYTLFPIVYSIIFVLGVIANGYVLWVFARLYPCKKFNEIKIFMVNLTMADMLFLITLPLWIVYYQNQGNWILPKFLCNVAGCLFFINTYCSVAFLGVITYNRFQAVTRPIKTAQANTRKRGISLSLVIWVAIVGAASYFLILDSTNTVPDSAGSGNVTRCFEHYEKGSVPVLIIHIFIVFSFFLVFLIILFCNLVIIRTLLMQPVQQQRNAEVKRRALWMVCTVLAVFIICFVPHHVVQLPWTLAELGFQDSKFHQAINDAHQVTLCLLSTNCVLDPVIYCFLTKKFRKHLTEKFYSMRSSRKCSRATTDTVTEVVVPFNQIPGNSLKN

Compound	pIC50
COc1ccc(C2CCC3(O2)C(=O)C(=CCCCCc2cccnc2)CC3c2ccc(OC)c(OC)c2)cc1OC (stereo not drawn) [Example 11, 1-Oxa-6-oxo-7-(3-pyridylbutyl)methylene-2,9-di(3,4-dimethoxyphenyl)spiro[4,4]nonane]	6.00
COc1ccc(C2CCC3(O2)C(=O)C(=CCCc2cccnc2)CC3c2ccc(OC)c(OC)c2)cc1OC (stereo not drawn) [Example 10, 1-Oxa-6-oxo-7-(3-pyridylethyl)methylene-2,9-di(3,4-dimethoxyphenyl)spiro[4,4]nonane]	5.82
COc1ccc(C2CCC3(O2)C(=O)CCC3c2ccc(OC)c(OC)c2)cc1OC (single isomer, unassigned) [Example 1A, 1-oxa-6-oxo-2,9-(3,4-dimethoxyphenyl)spiro[4,4]nonane]	4.92
COc1ccc(C2CCC3(O2)C(=O)CCC3c2ccc(OC)cc2)cc1 (stereo not drawn) [Example 18, 1-Oxa-6-oxo-2,9-di(4-methoxyphenyl)spiro[4,4]nonane]	5.30
COc1ccc(C2CCC3(O2)C(=O)C(=Cc2cccnc2)CC3c2ccc(OC)c(OC)c2)cc1OC (stereo not drawn) [Example 2, 1-Oxa-6-oxo-7-(3-pyridyl)methylene-2,9-di(3,4-dimethoxyphenyl)spiro[4,4]nonane]	5.52
COc1ccc(C2CCC3(O2)C(=CC#N)CCC3c2ccc(OC)c(OC)c2)cc1OC (stereo not drawn) [Example 17, 1-Oxa-6-cyanomethylene-2,9-di(3,4-dimethoxyphenyl)spiro[4,4]nonane]	5.82
COc1ccc(C2CCC3(O2)C(=O)C(=Cc2cccc(Cl)c2)CC3c2ccc(OC)c(OC)c2)cc1OC (stereo not drawn) [Example 5, 1-Oxa-6-oxo-7-(3-chlorophenyl)methylene-2,9-di(3,4-dimethoxyphenyl)spiro[4,4]nonane]	5.30
COc1ccc(C2CCC3(O2)C(=O)C(=Cc2cccnc2)CC3c2ccc(OC)cc2)cc1 (stereo not drawn) [Example 19, 1-Oxa-6-oxo-7-(3-pyridyl)methylene-2,9-di(4-methoxyphenyl)spiro[4,4]nonane]	5.05
